# Measured values taken from patent publication US12391726B2, “Ursolic acid morpholine salt” (EMMYON, INC., priority 2017, dated 2025).
# Structures can show the parent of a compound that is named as a salt. Where two headings read alike, the source gives them in different places. Marks after values point to notes of the source that are not given here.
# How the values were obtained:
# male C57BL/6 mice [1] = test: Comparative grip strength testing for ursolic acid and salts thereof (standard chow, 6 weeks); format: in vivo; conditions: for Grip Strength (% Change vs. Control): 6 weeks, mean ± SEM, 12 mice; for Potency and efficacy compared with native ursolic acid and other ursolic acid salts: conclusion from Table I grip strength data
# Description: Weight-matched cohorts of 8-week old male C57BL/6 mice were randomized to receive ad libitum access to either standard chow (control) or standard chow supplemented with either 0.050% ursolic acid, 0.200% ursolic acid, or one of the indicated ursolic acid salts: ursolic acid-ethanolamine salt; ursolic acid-tris(hydroxymethyl)aminomethane salt, hereinafter referred to as ursolic acid-“tris” salt; ursolic acid-lysine salt; ursolic acid-diethanolamine salt; ursolic acid-morpholine salt; or ursolic acid-piperazine salt. The ursolic acid-diethanolamine salt and ursolic acid-morpholine salt were prepared as described above. Ursolic acid was commercially obtained, and was used as a starting material to make the other ursolic acid salts according to techniques analogous to those above and known in the art. The doses of ursolic acid salts were molar-matched to either 0.050% ursolic acid (i.e. 0.057% ursolic acid-ethanolamine salt, 0.063% ursolic acid-tris salt, 0.066% ursolic acid-lysine salt, 0.059% ursolic acid-morpholine salt, and 0.059% ursolic acid-piperazine salt) or to 0.048% ursolic acid (i.e. 0.060% ursolic acid-diethanolamine salt). After mice had consumed these diets for 6 weeks, in vivo grip strength was measured.
# male C57BL/6 mice [2] = test: Direct comparison to molar-matched ursolic acid in obesity-induced glucose intolerance (high-fat chow, 7 weeks); format: in vivo; conditions: 6 h fast, 0.050% ursolic acid or 0.059% morpholine salt, P<0.01
# Description: Weight-matched cohorts of 8-week old male C57BL/6 mice were randomized to receive ad libitum access to either high-fat chow supplemented with 0.050% ursolic acid, or high-fat chow supplemented with a molar-matched dose of ursolic acid-morpholine salt (0.059%). After mice had consumed the diets for 7 weeks, mice were fasted for 6 hours and then subjected to glucose tolerance testing. […] Data are means±SEM from 10 mice per cohort.
# C2C12 myotubes = test: Total cellular protein in cultured C2C12 myotubes (in vitro model of skeletal muscle); format: cell-based; conditions: 48 hours, 10% FBS; for Total cellular protein (FIG. 6): normalized to vehicle-treated, dose-dependent
# Description: A direct, side-by-side comparison of ursolic acid and ursolic acid-morpholine salt was performed in an in vitro model of skeletal muscle. C2C12 myoblasts were cultured and fully differentiated into post-mitotic skeletal myotubes, then incubated for 48 hours with 10% fetal bovine serum (FBS) plus the indicated concentrations of ursolic acid or ursolic acid-morpholine salt. Myotubes were then harvested for assessment of total cellular protein, which increases as myotubes undergo hypertrophy. (See Dyle et al., Systems-based discovery of tomatidine as a natural small molecule inhibitor of skeletal muscle atrophy, Journal of Biological Chemistry 289, (2014) 14913-14924.) Total protein in each sample was normalized to the amount of in vehicle-treated myotubes. […] Results are shown in FIG. 6, which is a graph depicting results from the direct, side-by-side comparison of ursolic acid and ursolic acid-morpholine salt in the cultured C2C12 myotubes in vitro model of skeletal muscle.
# male C57BL/6 mice [3] = conditions: high-fat chow, 8 weeks, 0.500% Ursolic Acid or 0.059% morpholine salt; for Skeletal Muscle Wt (mg/g Final Body Wt): total dissected muscle weight normalized to final body weight
# Description: Weight-matched cohorts of 8-week old male C57BL/6 mice were randomized to receive ad libitum access to either high-fat chow (control), high-fat chow supplemented with 0.050% ursolic acid, or high-fat chow supplemented with a molar-matched dose of ursolic acid-morpholine salt (0.059%). Just prior to starting these diets, mice were weighed and subjected to body composition analysis by NMR. After mice had consumed the diets for 8 weeks, body weight and body composition were re-assessed, retroperitoneal and epididymal fat pads were dissected and weighed, and skeletal muscles (tibialis anterior, gastrocnemius, soleus, quadriceps and triceps) were dissected and weighed. In each mouse, the total dissected skeletal muscle weight (combined weight of bilateral tibialis anterior, gastrocnemius, soleus, quadriceps and triceps muscles) was normalized to the final body weight. Data are means±SEM from 10 mice per cohort.
# male C57BL/6 mice [4] = test: Ursolic acid-diethanolamine salt: body weight and composition testing (standard chow, 7 weeks); format: in vivo
# Description: After mice had consumed these diets for 7 weeks, mice were weighed and body composition was assessed by NMR. Data are means±SEM from 15 mice per cohort. *P<0.05.
# male C57BL/6 mice [5] = test: Comparison with a maximally effective dose of ursolic acid (high-fat diet, 7 weeks, glucose tolerance test); format: in vivo; conditions: 0.059% morpholine salt vs 0.20% w/w ursolic acid
# Description: After 7 weeks on the diets, mice were fasted for 6 hours and were then subjected to glucose tolerance tests.
# male C57BL/6 mice [6] = conditions: quadriceps, 0.059% in standard chow, 7 weeks, vs control
# Description: (§1) Weight-matched cohorts of 8-week old male C57BL/6 mice were randomized to receive ad libitum access to either standard chow (control) or standard chow supplemented with 0.059% ursolic acid-morpholine salt. After mice had consumed these diets for 7 weeks, quadriceps muscles were dissected, fixed, cross-sectioned, stained with hematoxylin and eosin, and subjected to photomicrography. FIG. 1A is a photomicrograph of quadriceps skeletal muscle fibers from the control group. FIG. 1B is a photomicrograph of quadriceps skeletal muscle fibers from the ursolic acid-morpholine salt group.
# male C57BL/6 mice [7] = conditions: retroperitoneal fat pads, 0.059% in standard chow, 7 weeks, vs control
# Description: as §1, with “retroperitoneal fat pads” for “quadriceps muscles”, “2A” for “1A”, “adipocytes from retroperitoneal fat pads” for “quadriceps skeletal muscle fibers”, “2B” for “1B”
# male C57BL/6 mice [8] = conditions: 0.059% in standard chow, 7 weeks
# Description: Weight-matched cohorts of 8-week old male C57BL/6 mice were randomized to receive ad libitum access to either standard chow (control) or standard chow supplemented with 0.059% ursolic acid-morpholine salt. After mice had consumed these diets for 7 weeks, in vivo, grip strength was measured, mice were weighed, body composition was assessed by NMR, and quadriceps muscles were dissected for histological analysis of skeletal muscle fiber cross-sectional diameter.
# diet-induced obese mice = test: Obesity and blood glucose testing (high-fat chow, 9 weeks); format: in vivo; conditions: 0.059% in high-fat chow
# Description: Weight-matched cohorts of 8-week old male C57BL/6 mice were randomized to receive ad libitum access to either high-fat chow (control) or high-fat chow supplemented with 0.059% ursolic acid-morpholine salt. Just prior to starting these diets, mice were weighed and subjected to body composition analysis by NMR. After mice had consumed the diets for 9 weeks, body weight and body composition were re-assessed, retroperitoneal and epididymal fat pads were dissected and weighed, and non-fasting blood glucose was measured.
# male C57BL/6 mice [9] = conditions: 0.059% in high-fat chow, 8 weeks, 6 h fast; control 37,122±1,339; P<0.01
# Description: Weight-matched cohorts of 8-week old male C57BL/6 mice were randomized to receive ad libitum access to either high-fat chow (control) or high-fat chow supplemented with 0.059% ursolic acid-morpholine salt. After mice had consumed the diets for 8 weeks, mice were fasted for 6 hours and then subjected to glucose tolerance testing. Results are shown in FIG. 3, which is a graph depicting glucose tolerance testing results. Data are means±SEM from 15 mice per cohort.
# [10] = standard chow supplemented, doses molar-matched to 0.050% ursolic acid (0.048% for diethanolamine salt): 0.050% ursolic acid, 0.057% ethanolamine, 0.063% tris, 0.066% lysine, 0.060% diethanolamine, 0.059% morpholine, 0.059% piperazine salt
smiles,measurement,setting,value
"C[C@H]1[C@H](C)CC[C@]2(C(=O)O)CC[C@]3(C)C(=CC[C@@H]4[C@@]5(C)CC[C@H](O)C(C)(C)C5CC[C@]43C)[C@H]12 (stereo partly shown) [Ursolic Acid, Ursolic acid]",Grip Strength (% Change vs. Control),male C57BL/6 mice [1]; [10],7.7 ± 1.9%
same,Grip Strength (% Change vs. Control),male C57BL/6 mice [1]; standard chow with 0.200% ursolic acid,9.9 ± 2.2 %
same,Fasting blood glucose,male C57BL/6 mice [2],166.3 ± 3.7 mg/dL
same,Glucose tolerance test area under the curve (AUC),male C57BL/6 mice [2],"40,585±1,357"
same,Total cellular protein (FIG. 6),C2C12 myotubes,significantly increased
same,Epididymal Fat Pad Wt,male C57BL/6 mice [3],2208.6 ± 52.0 ^a mg
same,Final % Fat,male C57BL/6 mice [3],39.8 ± 0.7 ^a %
same,Final % Lean,male C57BL/6 mice [3],50.4 ± 0.5 ^a %
same,Final Body Wt,male C57BL/6 mice [3],40.8 ± 0.5 ^a g
same,Final Fat Mass,male C57BL/6 mice [3],16.3 ± 0.3 ^a g
same,Final Lean Mass,male C57BL/6 mice [3],20.6 ± 0.3 ^a g
same,Retroperitoneal Fat Pad Wt,male C57BL/6 mice [3],986.1 ± 21.8 ^a mg
same,Skeletal Muscle Wt (mg/g Final Body Wt),male C57BL/6 mice [3],25.5 ± 0.4 ^a mg/g Final Body Wt
"C[C@H]1[C@H](C)CC[C@]2(C(=O)O)CC[C@]3(C)C(=CCC4[C@@]5(C)CC[C@H](O)C(C)(C)C5CC[C@]43C)[C@H]12 (stereo partly shown) [Ursolic Acid-Diethanolamine Salt, ursolic acid diethanolamine salt]",Potency and efficacy compared with native ursolic acid and other ursolic acid salts,male C57BL/6 mice [1],more potent and efficacious
same,Grip Strength (% Change vs. Control),male C57BL/6 mice [1]; [10],11.7 ± 2.5 %
same,Final % Fat,male C57BL/6 mice [4]; 0.060% in standard chow,16.6 ± 2.0%
same,Final % Lean,male C57BL/6 mice [4]; 0.060% in standard chow,64.2 ± 1.6%
same,Final Body Wt,male C57BL/6 mice [4]; 0.060% in standard chow,31.7 ± 0.5 g
same,Final Fat Mass,male C57BL/6 mice [4]; 0.060% in standard chow,5.3 ± 0.7 g
same,Final Lean Mass,male C57BL/6 mice [4]; 0.060% in standard chow,20.3 ± 0.4* g
same,Final % Fat,male C57BL/6 mice [4]; 0.180% in standard chow,14.1 ± 1.8* %
same,Final % Lean,male C57BL/6 mice [4]; 0.180% in standard chow,65.5 ± 1.4* %
same,Final Body Wt,male C57BL/6 mice [4]; 0.180% in standard chow,30.7 ± 0.5 g
same,Final Fat Mass,male C57BL/6 mice [4]; 0.180% in standard chow,4.4 ± 0.6* g
same,Final Lean Mass,male C57BL/6 mice [4]; 0.180% in standard chow,20.0 ± 0.3 g
same,Lean mass and fat mass (conclusion),"male C57BL/6 mice [4]; conclusion from Table IV, standard chow",increased lean mass and decreased fat mass
"CC1CCC2(C(=O)O)CCC3(C)C(=CCC4C5(C)CCC(O)C(C)(C)C5CCC43C)C2C1C.NCCO (stereo not shown) [Ursolic Acid-Ethanolamine Salt, ursolic acid-ethanolamine salt]",Grip Strength (% Change vs. Control),male C57BL/6 mice [1]; [10],2.8 ± 1.6%
"CC1CCC2(C(=O)O)CCC3(C)C(=CCC4C5(C)CCC(O)C(C)(C)C5CCC43C)C2C1C.NCCCCC(N)C(=O)O (stereo not shown) [Ursolic Acid-Lysine Salt, ursolic acid-lysine salt]",Grip Strength (% Change vs. Control),male C57BL/6 mice [1]; [10],7.2 ± 2.3%
"C[C@H]1[C@H](C)CC[C@]2(C(=O)O)CC[C@]3(C)C(=CC[C@@H]4[C@@]5(C)CC[C@H](O)C(C)(C)[C@@H]5CC[C@]43C)[C@H]12 [Ursolic Acid-Morpholine Salt, ursolic acid morpholine salt]",Glucose tolerance test AUC relative to ursolic acid (FIG. 5),"male C57BL/6 mice [5]; 7 weeks, 6 h fast, P<0.05",significantly lower
same,Grip strength relative to ursolic acid,male C57BL/6 mice [5]; P=0.05,significantly improved
same,Potency and efficacy compared with native ursolic acid and other ursolic acid salts,male C57BL/6 mice [1],more potent and efficacious
same,Grip Strength (% Change vs. Control),male C57BL/6 mice [1]; [10],11.3 ± 2.1 %
same,Skeletal muscle fiber size (FIGS. 1A and 1B),male C57BL/6 mice [6],increased skeletal muscle fiber size
same,Fasting blood glucose,male C57BL/6 mice [2],140.6 ± 7.8 mg/dL
same,Glucose tolerance test area under the curve (AUC),male C57BL/6 mice [2],"32,606±2,471"
same,Adipocyte size (FIGS. 2A and 2B),male C57BL/6 mice [7],decreased adipocyte size
same,Efficacy relative to ursolic acid (total cellular protein),C2C12 myotubes,3 fold
same,Potency relative to ursolic acid (total cellular protein),C2C12 myotubes,3 fold
same,Total cellular protein (FIG. 6),C2C12 myotubes,significantly increased
same,Epididymal Fat Pad Wt,male C57BL/6 mice [3],1713.8 ± 139.8 ^b mg
same,Final % Fat,male C57BL/6 mice [3],31.4 ± 2.8 ^b %
same,Final % Lean,male C57BL/6 mice [3],57.3 ± 2.1 ^b %
same,Final Body Wt,male C57BL/6 mice [3],36.6 ± 0.9 ^b g
same,Final Fat Mass,male C57BL/6 mice [3],11.6 ± 1.2 ^b g
same,Final Lean Mass,male C57BL/6 mice [3],20.9 ± 0.7 ^a g
same,Retroperitoneal Fat Pad Wt,male C57BL/6 mice [3],709.8 ± 72.2 ^b mg
same,Skeletal Muscle Wt (mg/g Final Body Wt),male C57BL/6 mice [3],29.1 ± 1.0 ^b mg/g Final Body Wt
same,Final Body Wt,male C57BL/6 mice [8],34.6 ± 1.0 g
same,Final Grip Strength,male C57BL/6 mice [8],181.9 ± 2.4 g
same,Final % Fat,male C57BL/6 mice [8]; NMR,21.4 ± 2.9 %
same,Final % Lean,male C57BL/6 mice [8]; NMR,61.0 ± 2.2 %
same,Final Fat Mass,male C57BL/6 mice [8]; NMR,7.8 ± 1.2 g
same,Final Lean Mass,male C57BL/6 mice [8]; NMR,20.8 ± 0.3 g
same,Skeletal muscle hypertrophy,male C57BL/6 mice [8]; conclusion from Table II,stimulated skeletal muscle hypertrophy
same,Muscle fiber diameter,"male C57BL/6 mice [8]; quadriceps, >4200 fibers per diet",44.8 ± 0.2 μm
same,Epididymal Fat Pad Wt,diet-induced obese mice,1804.0 ± 161.5 mg
same,Final % Fat,diet-induced obese mice,31.8 ± 3.1 %
same,Final % Lean,diet-induced obese mice,55.3 ± 2.4 %
same,Final Body Wt,diet-induced obese mice,38.9 ± 1.2 g
same,Final Fat Mass,diet-induced obese mice,12.8 ± 1.4 g
same,Final Lean Mass,diet-induced obese mice,21.3 ± 0.6 g
same,Retroperitoneal Fat Pad Wt,diet-induced obese mice,731.8 ± 86.9 mg
same,Obesity in diet-induced obese mice,diet-induced obese mice; conclusion from Table III,reduced obesity
same,Blood Glucose,diet-induced obese mice; non-fasting,177.7 ± 9.9 mg/dL
same,Glucose tolerance test area under the curve (AUC),male C57BL/6 mice [9],"31,383±1,869"
"C1CNCCN1.C[C@H]1[C@H](C)CC[C@]2(C(=O)O)CC[C@]3(C)C(=CC[C@@H]4[C@@]5(C)CC[C@H](O)C(C)(C)[C@@H]5CC[C@]43C)[C@H]12 [Ursolic Acid-Piperazine Salt, ursolic acid-piperazine salt]",Grip Strength (% Change vs. Control),male C57BL/6 mice [1]; [10],3.7 ± 2.5%
"CC1CCC2(C(=O)O)CCC3(C)C(=CCC4C5(C)CCC(O)C(C)(C)C5CCC43C)C2C1C.NC(CO)(CO)CO (stereo not shown) [Ursolic Acid-Tris Salt, ursolic acid-tris(hydroxymethyl)aminomethane salt]",Grip Strength (% Change vs. Control),male C57BL/6 mice [1]; [10],5.2 ± 1.6%
